What was measured:
Oryctolagus cuniculus [1] = species on record: Oryctolagus cuniculus; assay: Antagonist activity against endothelin A/B2 receptor in New Zealand white rabbit basilar artery assessed as vasodilation by measuring effect on endothelin-1-induced constriction at 10 uM; assay type: tissue-based; parameters: scale not given: the % may be the effect or the level left
[2] = Antagonist activity against endothelin A/B2 receptor in New Zealand white rabbit basilar artery assessed as vasodilation by measuring effect on endothelin-1-induced constriction; assay type: tissue-based, Oryctolagus cuniculus
[3] = Antagonist activity against L-type calcium channel in New Zealand white rabbit basilar artery assessed as vasodilation by measuring effect on 50 mM K+-stimulated depolarization-induced constriction; assay type: tissue-based, Oryctolagus cuniculus
Oryctolagus cuniculus [4] = species on record: Oryctolagus cuniculus; assay: Antagonist activity against L-type calcium channel in New Zealand white rabbit basilar artery assessed as vasodilation by measuring effect on 50 mM K+-stimulated depolarization-induced constriction at 10 uM; assay type: tissue-based; parameters: scale not given: the % may be the effect or the level left

Row | SMILES | Activity (Oryctolagus cuniculus [1]) [%] | EC50 [2] [µM] | EC50 [3] [µM] | Activity (Oryctolagus cuniculus [4]) [%]
1 | COc1cc(/C=C/C(=O)CC(=O)/C=C/c2ccc(O)c(OC)c2)ccc1O [CURCUMIN] | 8.5 | 48.5 | 7.48 | 58.4
2 | COc1cc(/C=C/C(=O)c2cccc(NS(=O)(=O)C(F)(F)F)c2)ccc1O | 34.6 | – | – | 10.7
3 | COc1cc(/C=C/C(=O)c2cccc(NS(=O)(=O)c3cc(Cl)ccc3Cl)c2)ccc1O | 30.4 | – | – | 53.4
4 | COc1cc(/C=C/C(=O)c2cccc(NS(=O)(=O)c3cccs3)c2)ccc1O | 39.1 | – | – | 32.4
5 | COc1cc(/C=C/C(=O)c2cccc(NS(=O)(=O)c3c(Cl)cccc3Cl)c2)ccc1O | 99.8 | 1.8 | 2.78 | 99.4
6 | CCS(=O)(=O)Nc1cccc(C(=O)/C=C/c2ccc(O)c(OC)c2)c1 | 19.7 | – | – | 55.3
7 | COc1cc(/C=C/C(=O)c2cccc(NS(=O)(=O)c3cc(Cl)cc(Cl)c3)c2)ccc1O | 55.9 | – | – | 37.3
8 | CCCS(=O)(=O)Nc1cccc(C(=O)/C=C/c2ccc(O)c(OC)c2)c1 | 30.8 | – | – | 42.3
9 | COc1cc(/C=C/C(=O)c2cccc(NS(C)(=O)=O)c2)ccc1O | 22.3 | – | – | 4.2
10 | COc1cc(/C=C/C(=O)c2cccc(NS(=O)(=O)c3cccc(C(F)(F)F)c3)c2)ccc1O | 36.5 | – | – | 52.3
11 | COc1cc(/C=C/C(=O)c2cccc(NS(=O)(=O)C(C)C)c2)ccc1O | 31.2 | – | – | 20.5

The next lines start with results.

Row | Activity (Oryctolagus cuniculus [1]) [%] | EC50 [2] [µM] | EC50 [3] [µM] | SMILES | Activity (Oryctolagus cuniculus [4]) [%]
12 | 46.1 | – | – | COc1cc(/C=C/C(=O)c2cccc(NS(=O)(=O)c3ccc(C(F)(F)F)cc3)c2)ccc1O | 65.8
13 | 56.8 | – | – | COc1ccc(S(=O)(=O)Nc2cccc(C(=O)/C=C/c3ccc(O)c(OC)c3)c2)cc1 | 26.4
14 | 41.8 | – | – | COc1cc(/C=C/C(=O)c2cccc(NS(=O)(=O)c3ccc(Cl)c(Cl)c3)c2)ccc1O | 30.2
15 | 99.6 | 2.7 | 3.67 | COc1cc(/C=C/C(=O)c2cccc(NS(=O)(=O)c3ccc(C)cc3)c2)ccc1O | 98.7
16 | 40.2 | – | – | COc1cc(/C=C/C(=O)c2cccc(NS(=O)(=O)c3ccccc3)c2)ccc1O | 50.4
17 | 98.9 | 3.9 | – | COc1cc(/C=C/C(=O)c2cccc(NS(=O)(=O)c3ccc([N+](=O)[O-])cc3)c2)ccc1O | 70.7
18 | 81.4 | 6.1 | – | COc1cc(/C=C/C(=O)c2cccc(NS(=O)(=O)c3ccc(OC(F)(F)F)cc3)c2)ccc1O | 76.7
19 | 75.1 | 6.4 | – | COc1cc(/C=C/C(=O)c2cccc(NS(=O)(=O)c3ccc(F)cc3)c2)ccc1O | 71.8
20 | 68.7 | – | – | COc1cc(/C=C/C(=O)c2cccc(NS(=O)(=O)c3ccc(C(C)=O)cc3)c2)ccc1O | 67.9
21 | 83.4 | 8.8 | – | COc1cc(/C=C/C(=O)c2cccc(NS(=O)(=O)c3ccc(Cl)cc3Cl)c2)ccc1O | 4.2
22 | 78.3 | 5.9 | 5.58 | COc1cc(/C=C/C(=O)c2cccc(NS(=O)(=O)c3ccc(Cl)cc3)c2)ccc1O | 93.4

Source: ChEMBL document CHEMBL3621039, “Synthesis of alkylsulfonyl and substituted benzenesulfonyl curcumin mimics as dual antagonist of L-type Ca(2+) channel and endothelin A/B2 receptor” (Bioorg Med Chem, 2015)
